The text below walks through data of US20140335172A1, “OPHTHALMOLOGICAL RINSING AGENT AND METHODS THEREFOF” (priority 2013, published 2014).

Where two headings read alike, the source gives them in different places.

For data set [1] the following is noted: cited from earlier work; for Specific Gravity, at 25° C.: silicone oil grade given by kinematic viscosity, cSt.
For data set [2] the following is noted: cited from earlier work; for Kinematic Viscosity (Sticky**): Table 2.
The conditions of data set [3]: cited from earlier work.
The conditions of data set [4]: cited from earlier work. This is another data set of the same source.
Data set [5] is described as follows: Relative efficacy ranking of oil solvents. Conditions: relative rank, 1 = most efficient.
Data set [6] can be described thus: Relative volatility ranking of oil solvents. The data set is classed as physicochemical. As to conditions: relative rank, 1 = most volatile.
Data set [7] can be described thus: Relative cell toxicity ranking of oil solvents. Type of data set: cell-based. More on the design: key: 1 = most efficient/toxic/proliferative/volatile. Conditions: relative rank, 1 = most toxic.
The nature of data set [8]: Relative cell proliferation ranking of oil solvents. The data set is classed as cell-based. Conditions: relative rank, 1 = most proliferative.
The subject of data set [9] is rMC-1 cells. The experiment in a line: MTS cell viability, rMC-1, 1 hr incubation. Conditions: rMC-1 Müller cells, n=3. Type of data set: cell-based. An excerpt:
The innermost cell layer of the retina is called the retinal ganglion cell layer. It consists mainly of retinal ganglion cells, with some Müller cells and also some blood capillaries. This cell layer is located closest to the vitreous anatomically and thus is almost in direct contact with the rinsing agent in this study. Therefore, a retinal ganglion cell line (RGC-5) and a rat Müller cell line were used in this in-vitro cell culture study to evaluate the biocompatibility of the rinsing agent in accordance with at least one embodiment of this application.

The conditions of data set [10]: cited from earlier work. The source holds these as a separate data set.
The test system of data set [11] is RGC-5. Conditions: RGC-5, 30 minutes, n=3. As to the method: In the study, CellTiter 96® AQueous non-radioactive cell proliferation assay (MTS) and Cytotoxicity Detection Kit (LDH assay) were used to test for the cell viability and cell death of the RGC-5 and rMC-1 cells after incubation with the rinsing agent (FIG. 17). The major component of the rinsing agent is octamethyltrisiloxane (1.0 cSt Silicone Oil [SO]) with hydrophobic surfactant DC749 (Dow Corning). Rinsing agents with different concentration of DC749 (0%, 5%, 10% in vol.) were included. The incubation time was designed as 1 hr because the proposed use of the rinsing agent would not be longer than 15 mins in-vivo and therefore a 1 hr study would be more than sufficient in deciding the effect of the proposed rinsing agent on the cells in the eye cavity. Hank's Balanced salt solution (HBSS) was used as the experimental control. Two liquids, perfluorodecalin (PFD) and F6H8, were also included in this study. PFD is a widely accepted short-term used intraoperative adjunct for flattening the folded retina during retinal surgery. F6H8 is a key component of Heavy Silicone Oil (HSO), which has been used as a long-term intraocular tamponade.
In a study similar to 6.4 above, the cell viability and the percentage cell death of RGC-5 were investigated in a 30-minute experiment.

[12] abbreviates: silicone oil grade given by kinematic viscosity, cSt.
Where [13] appears, read: at 25 ° C., Table 4 surfactants.

Take `CCCCCCC(F)(F)C(F)(F)C(F)(F)C(F)(F)C(F)(F)C(F)(F)F` [F6H6]: the “Density (g/cm^3) at 25° C.” value in data set [1] (at 25° C., Table 3) was 1.386 g/mL. In data set [2], the “Dynamic Viscosity (mPa · s) at 25° C.” value is reported as 2.38 mPa · s. The “Surface Tension (mN/m)” value in data set [3] (Table 3) was 20.0 mN/m. For the same compound, in data set [4] (25° C.), the “Vapor Pressure (Torr)” value was <1 (25° C.) Torr.
For the compound `C[Si](C)(C)O[Si](C)(C)O[Si](C)(C)C` [Octamethyltrisiloxane], the “Density (g/cm^3) at 25° C.” value in data set [1] (at 25° C., Table 3) is 0.818 g/mL. Besides, the “Specific Gravity, at 25° C.” value in data set [1] (at 25° C.) is on record as 0.816. Also, in [2], the “Dynamic Viscosity (mPa · s) at 25° C.” value is reported as 1.0 mPa · s. The “Surface Tension (mN/m)” value in data set [3] (Table 3) and in [3] (setting [12]) was 17.4 mN/m throughout. Further, in [4] (25° C.), the “Vapor Pressure (Torr)” value is 4 (25° C.) Torr.
Regarding `CCCCCCCCC(F)(F)C(F)(F)C(F)(F)C(F)(F)C(F)(F)C(F)(F)F` [F6H8], the Efficacy in data set [5] is on record as 3. Also, the Volatility in data set [6] is given as 3. In data set [7], this compound had a Cell toxicity of 2. Moreover, the Cell proliferation in data set [8] was found to be 2. The “cell viability relative to HBSS, MTS assay” value in data set [9] is “significant decrease in cell viability”. For the same compound, the “Density (g/cm^3) at 25° C.” value in [1] (at 25° C., Table 3) was 1.331 g/mL. Besides, in [2], the “Kinematic Viscosity (Sticky**)” value is recorded as 3.44 cSt and the “Dynamic Viscosity (mPa · s) at 25° C.” value was 3.44 mPa · s. In addition, the “Surface Tension (mN/m)” value in data set [3] (Table 3) was 19.65 mN/m. In addition, the “Vapor Pressure (Torr)” value in data set [4] (25° C.) was <1 (25° C.) Torr.
Take `O` [H2O]: the “Density (g/cm^3) at 25° C.” value in [1] (at 25° C., Table 3) was 0.970 g/mL. Also, the “Dynamic Viscosity (mPa · s) at 25° C.” value in data set [2] is reported as 0.89 mPa · s. In data set [3] (Table 3), the “Surface Tension (mN/m)” value is on record as 72 mN/m. For the same compound, the “Vapor Pressure (Torr)” value in [4] (37° C.) was 46.9 (37° C.) Torr.
Take `C[Si]1(C)O[Si](C)(C)O[Si](C)(C)O[Si](C)(C)O1` [Octamethylcyclotetrasiloxane]: the “Density (g/cm^3) at 25° C.” value in [1] (setting [13]) is 0.95 g/mL. In [10], the “Henry's Law Constant, Pa m^3/mol at 25° C.” value (shortened to “Henry's Law Constant”) was 1,214,000 Pa m^3/mol. In addition, the “Vapor Pressure, Pa at 25° C.” value in data set [4] is listed as 132 Pa.
Turning to `C[Si]1(C)O[Si](C)(C)O[Si](C)(C)O[Si](C)(C)O[Si](C)(C)O[Si](C)(C)O1` [Dodecamethylcyclobexasiloxane], in data set [1] (setting [13]), the “Density (g/cm^3) at 25° C.” value was 0.963 g/mL. The “Henry's Law Constant” value in data set [10] is 14,667 Pa m^3/mol. In data set [4], the “Vapor Pressure, Pa at 25° C.” value was 4.6 Pa.
On to `C[Si]1(C)O[Si](C)(C)O[Si](C)(C)O[Si](C)(C)O[Si](C)(C)O1` [Decamethylcyclopentasiloxane], for which the “Density (g/cm^3) at 25° C.” value in [1] (setting [13]) is 0.954 g/mL. Moreover, the “Henry's Law Constant” value in data set [10] is reported as 3,342,000 Pa m^3/mol. Besides, in data set [4], the “Vapor Pressure, Pa at 25° C.” value is 33.2 Pa.
Regarding `C[Si](C)(C)O[Si](C)(C)C` [Hexamethyldisiloxane], the “cell viability relative to HBSS, MTS assay” value in [11] (listed as 0.65 mPa·s SO) is recorded as “significant decrease of cell viability”; in [11] (listed as LMW-SO 0.65 mPa·s), “reducing the metabolism”. In [1] (20° C., Table 3), the “Density” value was 0.764 g/mL. Moreover, the “Specific Gravity, at 25° C.” value in data set [1] (at 25° C.) was 0.760. Also, the “Dynamic Viscosity (mPa · s) at 25° C.” value in [2] is recorded as 0.65 mPa · s. Further, the “Surface Tension (mN/m)” value in data set [3] (Table 3) and in data set [3] (setting [12]) was 15.9 mN/m in each case. For the same compound, in data set [4] (37° C.), the “Vapor Pressure (Torr)” value is recorded as 42.2 (37° C.) Torr.
Turning to `CCCCCCCCCCCCC(F)(F)C(F)(F)C(F)(F)C(F)(F)C(F)(F)C(F)(F)F` [F6H12], the “Density (g/cm^3) at 25° C.” value in data set [1] (at 25° C., Table 3) was 1.25 g/mL. Moreover, the “Dynamic Viscosity (mPa · s) at 25° C.” value in data set [2] is 6.99 mPa · s. For the same compound, the “Surface Tension (mN/m)” value in data set [3] (Table 3) was 21.1 mN/m.
The compound `FC(F)(F)C(F)(F)C(F)(F)C(F)(F)C(F)(F)C(F)(F)C(F)(F)C(F)(F)Br` [PFOB] yielded an Efficacy in [5] of 3. In data set [6], this compound returned a Volatility of 4. This compound displayed a Cell toxicity in [7] of 1. Besides, in data set [8], the Cell proliferation is 3. Moreover, in data set [1] (at 25° C., Table 3), the “Density (g/cm^3) at 25° C.” value was 1.930 g/mL. Besides, in [2], the “Kinematic Viscosity (Sticky**)” value was 1.93 cSt and the “Dynamic Viscosity (mPa · s) at 25° C.” value is 1.93 mPa · s. Further, in [3] (Table 3), the “Surface Tension (mN/m)” value is 18 mN/m. Also, the “Vapor Pressure (Torr)” value in data set [4] (37° C.) is reported as 10.5 (37° C.) Torr.
As to `CCCCCC(F)(F)C(F)(F)C(F)(F)C(F)(F)F` [F4H5], in data set [5], the Efficacy came to 2. In data set [6], this compound gave a Volatility of 2. Besides, in [1] (at 25° C., Table 3), the “Density (g/cm^3) at 25° C.” value is 1.284 g/mL. Moreover, in data set [2], the “Kinematic Viscosity (Sticky**)” value is 1.05 cSt and the “Dynamic Viscosity (mPa · s) at 25° C.” value was 1.05 mPa · s. Besides, in data set [3] (Table 3), the “Surface Tension (mN/m)” value is on record as 17.43 mN/m. Also, the “Vapor Pressure (Torr)” value in [4] (37° C.) is 25.1 (37° C.) Torr.
